In US20230085307A1, “PYRIDAZINONE COMPOUND AND HERBICIDE” (NISSAN CHEMICAL CORPORATION, priority 2019, published 2023):

Legend:
wild oat [1] = assay: Test Example 5: herbicidal effect by foliage application, plastic box (Table 20, symbol I); format: in vivo, wild oat (Avena fatua); details: foliage application, 320 g/ha
Outline: (§1)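 Foliar spray test: emulsion formulation diluted in water to a set application rate, sprayed onto 14-day-old plants raised in diluvial soil at 25° C to 30° C under glass. Both herbicidal effect and crop effect rated visually three weeks later.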

oval-leafed pondweed = assay: Test Example 1: herbicidal activity, application before weed generation under submerged conditions (Table 16, symbol C); format: in vivo, oval-leafed pondweed (Monochoria vaginalis)
Outline: (§2)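 Alluvial soil was flooded to 4 cm depth, weed seeds were sown mixed and 2.5-leaf rice seedlings were transplanted. On sowing day, the compound's emulsion, diluted in water to a set dose, was applied to the water surface. Plants grew at 25–30 °C and were scored 0–5 after three weeks.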

Chinese sprangletop = assay: Test Example 3: herbicidal effect by foliage application, Wagner pot (Table 18, symbol D); format: in vivo, chinese sprangletop (Leptochloa chinensis); details: 320 g/ha
Outline: (§3)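 Plants were sown in alluvial soil held under 0.1–0.5 cm standing water and grown 14 days in a greenhouse at 25–30 °C. An emulsifiable formulation, water-diluted to the set dose, was then sprayed onto the foliage, and effects were scored three weeks later using previously defined criteria.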

Japanese bulrush = assay: Test Example 1: herbicidal activity, application before weed generation under submerged conditions (Table 16, symbol B); format: in vivo, Japanese bulrush (Schoenoplectus juncoides)
Outline: as §2

windgrass [2] = assay: Test Example 4: herbicidal effect by soil treatment (Table 19, symbol L); format: in vivo, windgrass (Apera spica-venti)
Outline: (§4)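 Herbicidal effect was rated 3 weeks after treatment, using the scoring criteria of an earlier test. The compound, formulated as an emulsion and diluted in water to a set herbicide amount, had been sprayed uniformly on soil over freshly sown seeds. Growth took place in a greenhouse at 25° C. to 30° C.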

barnyard grass [3] = assay: Test Example 4: herbicidal effect by soil treatment (Table 19, symbol H); format: in vivo, barnyard grass (Echinochloa crus-galli)
Outline: as §4

velvetleaf [4] = assay: Test Example 4: herbicidal effect by soil treatment (Table 19, symbol M); format: in vivo, velvetleaf (Abutilon theophrasti)
Outline: as §4

southern crabgrass [5] = assay: Test Example 5: herbicidal effect by foliage application, plastic box (Table 20, symbol F); format: in vivo, southern crabgrass (Digitaria ciliaris); details: foliage application, 320 g/ha
Outline: as §1

blackgrass [6] = assay: Test Example 4: herbicidal effect by soil treatment (Table 19, symbol J); format: in vivo, blackgrass (Alopecurus myosuroides)
Outline: as §4

chickweed = assay: Test Example 4: herbicidal effect by soil treatment (Table 19, symbol P); format: in vivo, common chickweed (Stellaria media)
Outline: as §4

Italian ryegrass [7] = assay: Test Example 4: herbicidal effect by soil treatment (Table 19, symbol K); format: in vivo, Italian ryegrass (Lolium multiflorum)
Outline: as §4

lambsquarters [8] = assay: Test Example 4: herbicidal effect by soil treatment (Table 19, symbol O); format: in vivo, lambsquarters (Chenopodium album)
Outline: as §4

velvetleaf [9] = assay: Test Example 5: herbicidal effect by foliage application, plastic box (Table 20, symbol M); format: in vivo, velvetleaf (Abutilon theophrasti); details: foliage application, 320 g/ha
Outline: as §1

southern crabgrass [10] = assay: Test Example 4: herbicidal effect by soil treatment (Table 19, symbol F); format: in vivo, southern crabgrass (Digitaria ciliaris)
Outline: as §4

late watergrass = assay: Test Example 1: herbicidal activity, application before weed generation under submerged conditions (Table 16, symbol A); format: in vivo, late watergrass (Echinochloa oryzicola)
Outline: as §2

green foxtail [11] = assay: Test Example 4: herbicidal effect by soil treatment (Table 19, symbol G); format: in vivo, green foxtail (Setaria viridis)
Outline: as §4

barnyard grass [12] = assay: Test Example 5: herbicidal effect by foliage application, plastic box (Table 20, symbol H); format: in vivo, barnyard grass (Echinochloa crus-galli); details: foliage application, 320 g/ha
Outline: as §1

rice flat sedge = assay: Test Example 3: herbicidal effect by foliage application, Wagner pot (Table 18, symbol E); format: in vivo, rice flat sedge (Cyperus iria); details: 320 g/ha
Outline: as §3

wild oat [13] = assay: Test Example 4: herbicidal effect by soil treatment (Table 19, symbol I); format: in vivo, wild oat (Avena fatua)
Outline: as §4

windgrass [14] = assay: Test Example 5: herbicidal effect by foliage application, plastic box (Table 20, symbol L); format: in vivo, windgrass (Apera spica-venti); details: foliage application, 320 g/ha
Outline: as §1

redroot pigweed = assay: Test Example 4: herbicidal effect by soil treatment (Table 19, symbol N); format: in vivo, redroot pigweed (Amaranthus retroflexus)
Outline: as §4

blackgrass [15] = assay: Test Example 5: herbicidal effect by foliage application, plastic box (Table 20, symbol J); format: in vivo, blackgrass (Alopecurus myosuroides); details: foliage application, 320 g/ha
Outline: as §1

green foxtail [16] = assay: Test Example 5: herbicidal effect by foliage application, plastic box (Table 20, symbol G); format: in vivo, green foxtail (Setaria viridis); details: foliage application, 320 g/ha
Outline: as §1

persian speedwell [17] = assay: Test Example 4: herbicidal effect by soil treatment (Table 19, symbol R); format: in vivo, Persian speedwell (Veronica persica)
Outline: as §4

persian speedwell [18] = assay: Test Example 5: herbicidal effect by foliage application, plastic box (Table 20, symbol R); format: in vivo, Persian speedwell (Veronica persica); details: foliage application, 320 g/ha
Outline: as §1

lambsquarters [19] = assay: Test Example 5: herbicidal effect by foliage application, plastic box (Table 20, symbol O); format: in vivo, lambsquarters (Chenopodium album); details: foliage application, 320 g/ha
Outline: as §1

Italian ryegrass [20] = assay: Test Example 5: herbicidal effect by foliage application, plastic box (Table 20, symbol K); format: in vivo, Italian ryegrass (Lolium multiflorum); details: foliage application, 320 g/ha
Outline: as §1

barnyard grass [21] = assay: Test Example 3: herbicidal effect by foliage application, Wagner pot (Table 18, symbol H); format: in vivo, barnyard grass (Echinochloa crus-galli); details: 320 g/ha
Outline: as §3

[22] = amount of applied herbicide 320 g/ha

Structure (SMILES): CCCC(=O)Oc1c(C)nn(C)c(=O)c1-c1c(-c2ccccc2OC)sc2cc(OC)c(Cl)cc12 [5-069]
- herbicidal effect on wild oat (I) (wild oat [1]; three weeks after application): 0 (Herbicidal rate of 5% or less (almost no effect))
- Herbicidal effect, C: oval-leafed pondweed (oval-leafed pondweed; [22]): 0 (Herbicidal rate of 5% or less (almost no effect))
- herbicidal effect on Chinese sprangletop (D) (Chinese sprangletop): 0 (Herbicidal rate of 5% or less (almost no effect))
- Herbicidal effect, B: Japanese bulrush (Japanese bulrush; [22]): 1 (Herbicidal rate of 5% or more and less than 20%)
- L: windgrass, herbicidal effect grade (windgrass [2]; [22]): 0 (Herbicidal rate of 5% or less (almost no effect))
- H: barnyard grass, herbicidal effect grade (barnyard grass [3]; [22]): 0 (Herbicidal rate of 5% or less (almost no effect))
- M: velvetleaf, herbicidal effect grade (velvetleaf [4]; [22]): 0 (Herbicidal rate of 5% or less (almost no effect))
- herbicidal effect on southern crabgrass (F) (southern crabgrass [5]; three weeks after application): 4 (Herbicidal rate of 70% or more and less than 90%)
- J: blackgrass, herbicidal effect grade (blackgrass [6]; [22]): 0 (Herbicidal rate of 5% or less (almost no effect))
- P: chickweed, herbicidal effect grade (chickweed; [22]): 0 (Herbicidal rate of 5% or less (almost no effect))
- K: Italian ryegrass, herbicidal effect grade (Italian ryegrass [7]; [22]): 0 (Herbicidal rate of 5% or less (almost no effect))
- O: lambsquarters, herbicidal effect grade (lambsquarters [8]; [22]): 0 (Herbicidal rate of 5% or less (almost no effect))
- herbicidal effect on velvetleaf (M) (velvetleaf [9]; three weeks after application): 3 (Herbicidal rate of 40% or more and less than 70%)
- F: southern crabgrass, herbicidal effect grade (southern crabgrass [10]; [22]): 0 (Herbicidal rate of 5% or less (almost no effect))
- Herbicidal effect, A: late watergrass (late watergrass; [22]): 3 (Herbicidal rate of 40% or more and less than 70%)
- G: green foxtail, herbicidal effect grade (green foxtail [11]; [22]): 0 (Herbicidal rate of 5% or less (almost no effect))
- herbicidal effect on barnyard grass (H) (barnyard grass [12]; three weeks after application): 3 (Herbicidal rate of 40% or more and less than 70%)
- herbicidal effect on rice flat sedge (E) (rice flat sedge): 0 (Herbicidal rate of 5% or less (almost no effect))
- I: wild oat, herbicidal effect grade (wild oat [13]; [22]): 0 (Herbicidal rate of 5% or less (almost no effect))
- herbicidal effect on windgrass (L) (windgrass [14]; three weeks after application): 2 (Herbicidal rate of 20% or more and less than 40%)
- N: redroot pigweed, herbicidal effect grade (redroot pigweed; [22]): 2 (Herbicidal rate of 20% or more and less than 40%)
- herbicidal effect on blackgrass (J) (blackgrass [15]; three weeks after application): 0 (Herbicidal rate of 5% or less (almost no effect))
- herbicidal effect on green foxtail (G) (green foxtail [16]; three weeks after application): 3 (Herbicidal rate of 40% or more and less than 70%)
- R: persian speedwell, herbicidal effect grade (persian speedwell [17]; [22]): 0 (Herbicidal rate of 5% or less (almost no effect))
- herbicidal effect on persian speedwell (R) (persian speedwell [18]; three weeks after application): 0 (Herbicidal rate of 5% or less (almost no effect))
- herbicidal effect on lambsquarters (O) (lambsquarters [19]; three weeks after application): 3 (Herbicidal rate of 40% or more and less than 70%)
- herbicidal effect on Italian ryegrass (K) (Italian ryegrass [20]; three weeks after application): 0 (Herbicidal rate of 5% or less (almost no effect))
- herbicidal effect on barnyard grass (H) (barnyard grass [21]): 4 (Herbicidal rate of 70% or more and less than 90%)

Structure (SMILES): Cc1nn(C)c(=O)c(-c2c(-c3ccc(C(C)C)cc3)sc3ccc(F)cc23)c1O [2-014]
- effect on wild oat (I) (wild oat [1]; 3 weeks after application): 2 (Herbicidal rate of 20% or more and less than 40%)
- Herbicidal effect on C: oval-leafed pondweed (grade 0-5) (oval-leafed pondweed; 320 g/ha applied herbicide): 0 (Herbicidal rate of 5% or less (almost no effect))
- herbicidal effect on D (Chinese sprangletop), rating 0-5 (Chinese sprangletop): 5 (Herbicidal rate of 90% or more (almost completely withered))
- Herbicidal effect on B: Japanese bulrush (grade 0-5) (Japanese bulrush; 320 g/ha applied herbicide): 0 (Herbicidal rate of 5% or less (almost no effect))
- herbicidal effect rating, L: windgrass (windgrass [2]; 320 g/ha): 3 (Herbicidal rate of 40% or more and less than 70%)
- herbicidal effect rating, H: barnyard grass (barnyard grass [3]; 320 g/ha): 4 (Herbicidal rate of 70% or more and less than 90%)
- herbicidal effect rating, M: velvetleaf (velvetleaf [4]; 320 g/ha): 3 (Herbicidal rate of 40% or more and less than 70%)
- effect on southern crabgrass (F) (southern crabgrass [5]; 3 weeks after application): 5 (Herbicidal rate of 90% or more (almost completely withered))
- herbicidal effect rating, J: blackgrass (blackgrass [6]; 320 g/ha): 0 (Herbicidal rate of 5% or less (almost no effect))
- herbicidal effect rating, P: chickweed (chickweed; 320 g/ha): 4 (Herbicidal rate of 70% or more and less than 90%)
- herbicidal effect rating, K: Italian ryegrass (Italian ryegrass [7]; 320 g/ha): 4 (Herbicidal rate of 70% or more and less than 90%)
- herbicidal effect rating, O: lambsquarters (lambsquarters [8]; 320 g/ha): 5 (Herbicidal rate of 90% or more (almost completely withered))
- effect on velvetleaf (M) (velvetleaf [9]; 3 weeks after application): 5 (Herbicidal rate of 90% or more (almost completely withered))
- herbicidal effect rating, F: southern crabgrass (southern crabgrass [10]; 320 g/ha): 0 (Herbicidal rate of 5% or less (almost no effect))
- Herbicidal effect on A: late watergrass (grade 0-5) (late watergrass; 320 g/ha applied herbicide): 3 (Herbicidal rate of 40% or more and less than 70%)
- herbicidal effect rating, G: green foxtail (green foxtail [11]; 320 g/ha): 2 (Herbicidal rate of 20% or more and less than 40%)
- effect on barnyard grass (H) (barnyard grass [12]; 3 weeks after application): 5 (Herbicidal rate of 90% or more (almost completely withered))
- herbicidal effect on E (rice flat sedge), rating 0-5 (rice flat sedge): 5 (Herbicidal rate of 90% or more (almost completely withered))
- herbicidal effect rating, I: wild oat (wild oat [13]; 320 g/ha): 0 (Herbicidal rate of 5% or less (almost no effect))
- effect on windgrass (L) (windgrass [14]; 3 weeks after application): 5 (Herbicidal rate of 90% or more (almost completely withered))
- herbicidal effect rating, N: redroot pigweed (redroot pigweed; 320 g/ha): 5 (Herbicidal rate of 90% or more (almost completely withered))
- effect on blackgrass (J) (blackgrass [15]; 3 weeks after application): 4 (Herbicidal rate of 70% or more and less than 90%)
- effect on green foxtail (G) (green foxtail [16]; 3 weeks after application): 5 (Herbicidal rate of 90% or more (almost completely withered))
- herbicidal effect rating, R: persian speedwell (persian speedwell [17]; 320 g/ha): 5 (Herbicidal rate of 90% or more (almost completely withered))
- effect on persian speedwell (R) (persian speedwell [18]; 3 weeks after application): 5 (Herbicidal rate of 90% or more (almost completely withered))
- effect on lambsquarters (O) (lambsquarters [19]; 3 weeks after application): 5 (Herbicidal rate of 90% or more (almost completely withered))
- effect on Italian ryegrass (K) (Italian ryegrass [20]; 3 weeks after application): 5 (Herbicidal rate of 90% or more (almost completely withered))
- herbicidal effect on H (barnyard grass), rating 0-5 (barnyard grass [21]): 5 (Herbicidal rate of 90% or more (almost completely withered))
